Reference: ChEMBL document CHEMBL4219257, “Novel 8-hydroxyquinoline derivatives targeting β-amyloid aggregation, metal chelation and oxidative stress against Alzheimer's disease” (Bioorg Med Chem, 2018)
Activity calls are given as the source filed them. No cut-off for these calls is given here.

Columns and labels:
[1] = Antioxidant activity assessed as trolox equivalents of AAPH radical scavenging activity at 10 uM preincubated for 15 mins followed by AAPH addition measured every minute for 120 mins by ORAC-FL assay; format: functional
[2] = target: T1, Amyloid-beta precursor protein (Homo sapiens, UniProt P05067); assay: Inhibition of HFIP-pretreated amyloid beta (1 to 42) (unknown origin) self-induced aggregation at 10 uM after 48 hrs by thioflavin T-based fluorometric assay relative to control
T1 sequence (P05067 whole entry): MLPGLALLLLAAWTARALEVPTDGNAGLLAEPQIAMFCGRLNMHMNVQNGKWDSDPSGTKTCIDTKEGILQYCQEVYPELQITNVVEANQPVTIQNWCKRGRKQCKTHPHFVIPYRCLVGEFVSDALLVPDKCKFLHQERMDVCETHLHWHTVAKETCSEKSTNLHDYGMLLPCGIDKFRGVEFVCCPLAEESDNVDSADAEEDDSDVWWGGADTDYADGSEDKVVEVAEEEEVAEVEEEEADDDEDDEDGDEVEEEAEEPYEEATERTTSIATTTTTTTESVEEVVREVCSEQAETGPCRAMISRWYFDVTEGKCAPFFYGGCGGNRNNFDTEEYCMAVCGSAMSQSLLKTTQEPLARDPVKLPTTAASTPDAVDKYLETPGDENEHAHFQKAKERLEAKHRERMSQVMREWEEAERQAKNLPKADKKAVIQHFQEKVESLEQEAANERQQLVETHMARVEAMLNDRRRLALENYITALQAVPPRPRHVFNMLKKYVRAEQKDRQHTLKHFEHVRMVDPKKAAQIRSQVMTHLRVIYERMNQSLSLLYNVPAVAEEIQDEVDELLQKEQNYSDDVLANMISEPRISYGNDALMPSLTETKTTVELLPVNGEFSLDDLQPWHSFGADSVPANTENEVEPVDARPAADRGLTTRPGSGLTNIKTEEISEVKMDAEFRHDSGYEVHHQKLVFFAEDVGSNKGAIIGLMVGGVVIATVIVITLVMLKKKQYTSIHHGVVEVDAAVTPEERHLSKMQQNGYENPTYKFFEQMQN

in vitro = settings: PAMPA
Description: Permeability of the compound at 100 ug/ml after 10 hrs by PAMPA

[3] = target: T1, Amyloid-beta precursor protein; assay: Inhibition of HFIP-pretreated amyloid beta (1 to 42) (unknown origin) self-induced aggregation after 48 hrs by thioflavin T-based fluorometric assay
PC-12 [4] = assay: Cytoprotection against H2O2-induced apoptosis in rat PC12 cells assessed as late apoptotic cells at 5 uM preincubated for 4 hrs followed by H2O2 addition measured after 24 hrs by Annexin V-FITC/propidium iodide staining based flow cytometry (reference value: 32.6%); format: functional
Mus musculus [5] = assay: Acute toxicity in Kunming mouse assessed as effect on food consumption up to 2000 mg/kg, po measured after 4 hrs; format: organism-based; settings: in vivo
PC-12 [6] = assay: Cytoprotection against H2O2-induced apoptosis in rat PC12 cells assessed as late apoptotic cells at 2.5 uM preincubated for 4 hrs followed by H2O2 addition measured after 24 hrs by Annexin V-FITC/propidium iodide staining based flow cytometry (reference value: 32.6%); format: functional
PC-12 [7] = assay: Inhibition of H2O2-induced ROS level in rat PC12 cells assessed as mean fluorescence intensity at 5 uM preincubated for 4 hrs followed by H2O2 addition measured after 24 hrs by DCFH-DA staining based flow cytometry (reference value: 16947); format: functional
[8] = Metal chelating activity assessed as compound-Zn2+ complex formation at 50 uM measured after 20 mins by fluorescence spectroscopic method
PC-12 [9] = assay: Cytoprotection against H2O2-induced apoptosis in rat PC12 cells assessed as late apoptotic cells at 10 uM preincubated for 4 hrs followed by H2O2 addition measured after 24 hrs by Annexin V-FITC/propidium iodide staining based flow cytometry (reference value: 32.6%); format: functional
PC-12 [10] = assay: Cytoprotection against H2O2-induced apoptosis in rat PC12 cells assessed as necrotic cells at 2.5 uM preincubated for 4 hrs followed by H2O2 addition measured after 24 hrs by Annexin V-FITC/propidium iodide staining based flow cytometry (reference value: 8.9%); format: functional
[11] = Metal chelating activity assessed as compound-Fe3+ complex formation at 50 uM measured after 30 mins by UV-vis spectrophotometric method
[12] = Metal chelating activity assessed as compound-Fe3+ complex formation at 50 uM measured after 20 mins by fluorescence spectroscopic method
[13] = Inhibition of Cu2+ - induced amyloid beta (1 to 42) (unknown origin) aggregation at 50 uM after 24 hrs by thioflavin T-based fluorometric assay relative to control
PC-12 [14] = assay: Cytoprotection against oligomycin A-induced oxidative stress in rat PC12 cells assessed as increase in cell viability up to 10 uM after 24 hrs by MTT assay; format: functional, cell-based
[15] = Metal chelating activity assessed as mole fraction of compound required to show 2:1 stoichiometry for compound-Zn2+ complex at 50 uM by Job's plot analysis
[16] = Metal chelating activity assessed as compound-Fe2+ complex formation at 50 uM measured after 20 mins by fluorescence spectroscopic method
[17] = Metal chelating activity assessed as mole fraction of compound required to show 2.3:1 stoichiometry for compound-Cu2+ complex at 50 uM by Job's plot analysis
[18] = Metal chelating activity assessed as compound-Zn2+ complex formation by measuring maximum absorption wavelength at 50 uM measured after 30 mins by UV-vis spectrophotometric method (reference value: 241 nanometer)
Mus musculus [19] = assay: Cardiotoxicity in Kunming mouse up to 2000 mg/kg, po measured after 14 days by macroscopic method; format: toxicity, organism-based; settings: in vivo, 336 h
Mus musculus [20] = assay: Acute toxicity in Kunming mouse assessed as fur sleekness up to 2000 mg/kg, po measured after 4 hrs; format: organism-based; settings: in vivo
Mus musculus [21] = assay: Hepatotoxicity in Kunming mouse up to 2000 mg/kg, po measured after 14 days by macroscopic method; format: toxicity, organism-based; settings: in vivo, 336 h
[22] = Cytotoxicity against rat PC12 cells assessed as cell viability at 20 uM after 24 hrs by MTT assay relative to control; format: cell-based, PC-12; settings: read-out: Activity
PC-12 [23] = assay: Cytoprotection against H2O2-induced apoptosis in rat PC12 cells assessed as early apoptotic cells at 2.5 uM preincubated for 4 hrs followed by H2O2 addition measured after 24 hrs by Annexin V-FITC/propidium iodide staining based flow cytometry (reference value: 1.5%); format: functional
[24] = Inhibition of Zn2+ - induced amyloid beta (1 to 42) (unknown origin) aggregation at 50 uM after 24 hrs by thioflavin T-based fluorometric assay relative to control
PC-12 [25] = assay: Cytoprotection against H2O2-induced apoptosis in rat PC12 cells assessed as early apoptotic cells at 5 uM preincubated for 4 hrs followed by H2O2 addition measured after 24 hrs by Annexin V-FITC/propidium iodide staining based flow cytometry (reference value: 1.5%); format: functional
Mus musculus [26] = assay: Acute toxicity in Kunming mouse assessed as effect on body weight up to 2000 mg/kg, po measured after 4 hrs; format: organism-based; settings: in vivo
PC-12 [27] = assay: Cytoprotection against H2O2-induced apoptosis in rat PC12 cells assessed as necrotic cells at 10 uM preincubated for 4 hrs followed by H2O2 addition measured after 24 hrs by Annexin V-FITC/propidium iodide staining based flow cytometry (reference value: 8.9%); format: functional
[28] = Metal chelating activity assessed as compound-Cu2+ complex formation at 50 uM measured after 20 mins by fluorescence spectroscopic method
PC-12 [29] = assay: Cytoprotection against H2O2-induced oxidative stress in rat PC12 cells assessed as increase in cell viability after 24 hrs by MTT assay; format: functional, cell-based
PC-12 [30] = assay: Inhibition of H2O2-induced ROS level in rat PC12 cells assessed as mean fluorescence intensity at 2.5 uM preincubated for 4 hrs followed by H2O2 addition measured after 24 hrs by DCFH-DA staining based flow cytometry (reference value: 16947); format: functional
[31] = Metal chelating activity assessed as compound-Fe2+ complex formation by measuring maximum absorption wavelength at 50 uM measured after 30 mins by UV-vis spectrophotometric method (reference value: 241 nanometer)
Mus musculus [32] = assay: Acute toxicity in Kunming mouse assessed as mortality up to 2000 mg/kg, po measured after 14 days; format: organism-based; settings: in vivo, 336 h
Mus musculus [33] = assay: Nephrotoxicity in Kunming mouse up to 2000 mg/kg, po measured after 14 days by macroscopic method; format: toxicity, organism-based; settings: in vivo, 336 h
PC-12 [34] = assay: Inhibition of H2O2-induced ROS level in rat PC12 cells assessed as mean fluorescence intensity at 10 uM preincubated for 4 hrs followed by H2O2 addition measured after 24 hrs by DCFH-DA staining based flow cytometry (reference value: 16947); format: functional
Mus musculus [35] = assay: Acute toxicity in Kunming mouse assessed as effect on water consumption up to 2000 mg/kg, po measured after 4 hrs; format: organism-based; settings: in vivo
PC-12 [36] = assay: Cytoprotection against rotenone-induced oxidative stress in rat PC12 cells assessed as increase in cell viability up to 10 uM after 24 hrs by MTT assay; format: functional, cell-based
PC-12 [37] = assay: Cytoprotection against H2O2-induced apoptosis in rat PC12 cells assessed as live cells at 10 uM preincubated for 4 hrs followed by H2O2 addition measured after 24 hrs by Annexin V-FITC/propidium iodide staining based flow cytometry (reference value: 57%); format: functional
PC-12 [38] = assay: Inhibition of H2O2-induced ROS level in rat PC12 cells preincubated for 4 hrs followed by H2O2 addition measured after 24 hrs by DCFH-DA staining based flow cytometry; format: functional, cell-based
PC-12 [39] = assay: Cytoprotection against H2O2-induced apoptosis in rat PC12 cells assessed as necrotic cells at 5 uM preincubated for 4 hrs followed by H2O2 addition measured after 24 hrs by Annexin V-FITC/propidium iodide staining based flow cytometry (reference value: 8.9%); format: functional
PC-12 [40] = assay: Cytoprotection against H2O2-induced apoptosis in rat PC12 cells assessed as live cells at 5 uM preincubated for 4 hrs followed by H2O2 addition measured after 24 hrs by Annexin V-FITC/propidium iodide staining based flow cytometry (reference value: 57%); format: functional
PC-12 [41] = assay: Cytoprotection against H2O2-induced apoptosis in rat PC12 cells assessed as early apoptotic cells at 10 uM preincubated for 4 hrs followed by H2O2 addition measured after 24 hrs by Annexin V-FITC/propidium iodide staining based flow cytometry (reference value: 1.5%); format: functional
Mus musculus [42] = assay: Acute toxicity in Kunming mouse assessed as death up to 2000 mg/kg, po measured after 4 hrs; format: organism-based; settings: in vivo
PC-12 [43] = assay: Cytoprotection against H2O2-induced apoptosis in rat PC12 cells assessed as live cells at 2.5 uM preincubated for 4 hrs followed by H2O2 addition measured after 24 hrs by Annexin V-FITC/propidium iodide staining based flow cytometry (reference value: 57%); format: functional
[44] = Metal chelating activity assessed as compound-Cu2+ complex formation by measuring maximum absorption wavelength at 50 uM measured after 30 mins by UV-vis spectrophotometric method (reference value: 241 nanometer)

Compound: O=C(CCc1ccc(Cl)cc1)N1CCN(Cc2ccc(O)c3ncccc23)CC1
- Activity [1]: 2.57 equiv
- inhibition [2]: 15.6%

Compound: C[C@]12CC[C@@H]3c4ccc(O)cc4CC[C@H]3[C@@H]1CC[C@@H]2O [ESTRADIOL]
- Papp at 10 h, 100 ug/ml (in vitro): 9.17 ×10⁻⁶ cm/s

Compound: O=C(CCc1ccccc1)N1CCN(Cc2ccc(O)c3ncccc23)CC1
- Activity [1]: 2.6 equiv
- inhibition [2]: 28.1%
- IC50 [3]: 19.7 µM

Compound: O=C(CCc1ccccc1Cl)N1CCN(Cc2ccc(O)c3ncccc23)CC1
- Activity (PC-12 [4]): 8%
- Activity (Mus musculus [5]): Non-Toxic
- Activity (PC-12 [6]): 14.4%
- Flu intensity (PC-12 [7]): 10332
- Activity [8]: Active
- Activity (PC-12 [9]): 5.8%
- Activity (PC-12 [10]): 3.7%
- Activity [11]: Active
- Activity [1]: 2.63 equiv
- Activity [12]: Active
- inhibition [13]: 88.9%
- Activity (PC-12 [14]): Active
- Activity [15]: 0.66 molar ratio
- Activity [16]: Active
- Activity [17]: 0.7 molar ratio
- Activity [18]: 260 nm
- Activity (Mus musculus [19]): Non-Toxic
- Activity (Mus musculus [20]): Non-Toxic
- Activity (Mus musculus [21]): Non-Toxic
- viability at 24 h, 20 µM [22]: 83%
- Activity (PC-12 [23]): 2.1%
- inhibition [24]: 73.3%
- Activity (PC-12 [25]): 2.3%
- Activity (Mus musculus [26]): Non-Toxic
- Activity (PC-12 [27]): 1.3%
- Activity [28]: Active
- Activity (PC-12 [29]): Dose-dependent effect
- inhibition [2]: 65.8%
- Flu intensity (PC-12 [30]): 14556
- Activity [31]: 265 nm
- Activity (Mus musculus [32]): Non-Toxic
- Activity (Mus musculus [33]): Non-Toxic
- Flu intensity (PC-12 [34]): 9392
- Papp at 10 h, 100 ug/ml (in vitro): 11.1 ×10⁻⁶ cm/s
- Activity (Mus musculus [35]): Non-Toxic
- Activity (PC-12 [36]): Active
- Activity (PC-12 [37]): 90.9%
- inhibition (PC-12 [38]): Dose-dependent effect
- IC50 [3]: 5.64 µM
- Activity (PC-12 [39]): 1.4%
- Activity (PC-12 [40]): 88.3%
- Activity (PC-12 [41]): 2%
- Activity (Mus musculus [42]): Non-Toxic
- Activity (PC-12 [43]): 79.9%
- Activity [44]: 261 nm

Compound: O=C(/C=C/c1ccc(Br)cc1)N1CCN(Cc2ccc(O)c3ncccc23)CC1
- Activity [1]: 0.93 equiv
- inhibition [2]: 8.65%

Compound: CCn1cc(C(=O)O)c(=O)c2cc(F)c(N3CCNC(C)C3)c(F)c21 (centres undefined) [LOMEFLOXACIN]
- Papp at 10 h, 100 ug/ml (in vitro): 1.59 ×10⁻⁶ cm/s
